Laboratory results: patent US12410124B2 (priority 2019, dated 2025)
Like-named read-outs stand apart in the source and are kept apart here.

Legend:
[1] = tested on: fetal rat midbrain neurons; assay: Survival rate of primary midbrain neurons induced by MPP+ (CCK-8); assay type: cell-based; conditions: for viability at 5 µM / viability at 10 µM / viability at 20 µM: Rattus norvegicus, Neuron, read-out: Survival rate (%)
Excerpt: The main pathological feature of Parkinson's disease (PD) lies in the degeneration and loss of dopaminergic neuron in the substantia nigra-striatum of the midbrain. 1-Methyl-4-phenylpyridinium (MPP+) has a high affinity to dopamine carriers and a selective toxicity on dopaminergic neurons. Thus, MPP+ is one of the most ideal classic neurotoxins for establishing PD cell models. The primary cell culture of fetal rat midbrain is often used to establish PD cell models in recent years. Although it is more cumbersome and has higher technical requirements than cell line culture, it is closer to the pathological characteristics of PD. Thus, a PD cell model is established using neurons from the primary cell culture of fetal rat midbrain under MPP+ induction, to evaluate the protective effect of target compounds on the model neurons.
The midbrain was separated from a fetal rat of a 15-day-pregnant SD rat and cut into pieces, then subjected to trypsin digestion, pipetting, screen filtration, and resuspension steps, and inoculated in a 24-well cell culture plate pre-coated with poly-D-lysine. 12 hours after culture, cytarabine was added to inhibit the growth of glial cells. On the 5th day of neuron growth, the toxin MPP+ can be added to make a PD cell model. When detecting the activity of a target compound, the target compound was pre-incubated with midbrain neurons for 3 h, then MPP+ was added, and after 48 h co-incubation the neuronal viability was detected by CCK-8 method and the neuronal survival rate was calculated to evaluate the inhibitory activity of the target compound on the midbrain neuronal PD damage. The experiment included blank control group, MPP+ model group, positive control group (caffeic acid phenethyl ester, CAPE), prototype control group (styryl sulfone compounds 3B, 3C, 3D, and 3G), and target compound group (prepared according to Examples 1-22 in the invention).

substantia nigra p-α-s = assay: Substantia nigra p-α-s protein expression in MPTP Parkinson's disease model mouse (immunofluorescence); assay type: in vivo; conditions: percentage of mean intensity of blank control group, gavage 21 days after MPTP modeling
Method: (§1) Neurotoxins can be used to establish PD animal models. Currently, 1-methyl-4-phenyl-1,2,3,6-tetrahydropyridine (MPTP) is the sole synthetic toxin which is recognized to induce PD symptoms in human and non-human primates and in mice. Using MPTP subacute modeling method, C57BL/6J male mice were intraperitoneally injected with MPTP 30 mg/kg, once a day for 5 consecutive days. The experiment animals were divided into blank control group, MPTP model group, and compound treatment group. For the […] compound treatment group, the compound was administrated by gavage for 21 consecutive days after the completion of modeling; for the MPTP model group, the normal saline was administrated by gavage for 21 consecutive days after the completion of modeling; and for the blank control group, the normal saline was first intraperitoneally injected for 5 days, and then administrated by gavage for 21 days.
(§2) Alpha-synuclein is an “unfolded protein” in its natural state. It exists in a monomeric form, and participates in the physiological functions such as the release of neurotransmitters, the establishment of synaptic junctions, and the regulation of synaptic plasticity. Under pathological conditions, more than 90% of alpha-synuclein is phosphorylated at serine of position 129 and converted into phosphorylated alpha-synuclein (p-α-s), thereby forming Lewy bodies. The formation of Lewy bodies is one of the main pathological manifestations and pathological mechanisms for Parkinson's disease, and plays an important role in the formation and development of PD. The detection of the p-α-s expression in the midbrain and substantia nigra of PD model mice can evaluate the neuroprotective activity of the compound.
Half of experiment mice in each group were taken to separate the midbrain after perfusion and fixation. The tissue was trimmed, and the substantia nigra-striatum area was taken to prepare paraffin sections. The p-α-s immunofluorescence staining was performed in the brain sections of mice in each group. […] The experiment included blank control group, MPTP model group, positive control group (caffeic acid phenethyl ester, CAPE), prototype control group (styryl sulfone compounds 3B, 3C, 3D, and 3G, whose structures are shown as above), and target compound group.

substantia nigra CD11b = assay: Number of substantia nigra microglial cells with CD11b positive expression in MPTP Parkinson's disease model mouse (immunohistochemistry); assay type: in vivo; conditions: for Positive cell number (microglial cells with CD11b positive expression): substantia nigra, MPTP Parkinson's disease model mouse, immunohistochemistry
Method: as §1
Neuron-glial cell network homeostasis disorder is an important factor for the selective and progressive death of substantia nigra dopaminergic neurons in PD. In the neurotoxic effect of MPTP, the excessive activations of microglial cells and astrocytes produce a variety of inflammatory cytokines and reactive oxygen species (ROS). These inflammatory factors and ROS amplify their respective toxicities and mediate malignant feedback loop, causing a cascade inflammation response and aggravating the pathological process of PD. CD11b and GFAP are the marker proteins for activations of microglial cells and astrocytes, respectively. Therefore, the effect of the target compounds on the activations of the microglial cells and astrocytes in the substantia nigra, hippocampus, and midbrain areas of MPTP-induced PD mice can be investigated, to explore the mechanism of the anti-PD effect of the target compounds by inhibiting the neuroinflammation.
Half of experiment mice in each group were taken to separate the midbrain after perfusion and fixation. The tissue was trimmed, and the substantia nigra area was taken to prepare paraffin sections. The CD11b immunohistochemical staining was performed for the statistics of the change in the number of microglial cells with CD11b positive expression. The experiment included blank control group, MPTP model group, positive control group (caffeic acid phenethyl ester, CAPE), prototype control group (styryl sulfone compounds 3B, 3C, 3D, and 3G, whose structures are shown as above), and target compound group.

midbrain p-α-s = assay: Midbrain p-α-s protein expression in MPTP Parkinson's disease model mouse (western-blotting); assay type: in vivo; conditions: midbrain total protein, GAPDH internal reference, gavage 21 consecutive days after MPTP modeling
Method: as §1, §2
(§3) Half of experiment mice in each group were taken to extract the total midbrain protein, and the change in the midbrain P-α-s protein expression was determined by western-blotting using GAPDH as the internal reference. The experiment included blank control group, MPTP model group, positive control group (caffeic acid phenethyl ester, CAPE), prototype control group (styryl sulfone compounds 3B, 3C, 3D, and 3G, whose structures are shown as above), and target compound group.

midbrain TH = assay: Midbrain TH expression in MPTP Parkinson's disease model mouse (western-blotting); assay type: in vivo; conditions: midbrain total protein, GAPDH internal reference, gavage 21 days after MPTP modeling
Method: as §1
The main cause of PD lies in the pathological changes in the substantia nigra-striatum projection system of the brain and the progressive degeneration and loss of dopaminergic neurons. Tyrosine hydroxylase (TH) is the first enzyme in the biosynthesis of catecholamine neurotransmitters, as well as the first rate-limiting enzyme in the dopamine synthesis. It plays an important role in the synthesis and metabolism of the neurotransmitter DA. The TH in PD animal models and patients has a wide range of abnormal changes, from the gene expression to the enzyme protein content and enzyme activity. The detection of the TH expression in the midbrain and substantia nigra of PD model mice can be used to evaluate the neuroprotective activity of the compound.
as §3, with “TH” for “P-α-s protein expression”

[2] = 5 μM, 3 h pre-incubation, 48 h with MPP+
[3] = 10 μM, 3 h pre-incubation, 48 h with MPP+
[4] = 20 μM, 3 h pre-incubation, 48 h with MPP+

| Structure (SMILES) | viability at 5 µM [1, 2] [%] | viability at 10 µM [1, 3] [%] | viability at 20 µM [1, 4] [%] | Expression (Immunofluorescence intensity %) (substantia nigra p-α-s) [%] | Positive cell number (microglial cells with CD11b positive expression) (substantia nigra CD11b) | Expression (p-α-s/GAPDH) (midbrain p-α-s) | Expression (TH/GAPDH) (midbrain TH) | survival rate compared with the styryl sulfone prototype compounds ([1]; no concentration stated) | number of substantia nigra microglial cells with CD11b positive expression compared with the styryl sulfone prototype compounds (substantia nigra CD11b) | viability at 5 µM ([1]; 48 h) [%] | viability at 10 µM ([1]; 48 h) [%] | viability at 20 µM ([1]; 48 h) [%] |
| --- | --- | --- | --- | --- | --- | --- | --- | --- | --- | --- | --- | --- |
| CC(=O)Oc1ccc(/C=C/S(=O)(=O)Cc2c(F)c(F)c(F)c(F)c2F)cc1OC(=O)NC(=O)c1ccc([N+](=O)[O-])c(C)c1 [Compound D5-4, (E)-2-[N-(3-methyl-4-nitrobenzoyl)carbamoyloxy]-4-{2-[(perfluorophenyl)mesyl]ethenyl}phenyl acetate] | 60.5 ± 3.19 | 73.2 ± 4.53 | 87.5 ± 2.16 | 186.19 ± 11.02 | 41 ± 3 | 0.64 ± 0.12 | 1.19 ± 0.05 | – | – | – | – | – |
| CCN(CC)C(=O)Oc1ccc(/C=C/S(=O)(=O)CCCc2ccccc2)cc1OC(=O)N(CC)CC [Compound C1-1, (E)-4-[2-(3-phenylpropylsulfonyl)ethenyl]-1,2-phenylenebis(diethylcarbamate)] | 69.5 ± 3.89 | 82.2 ± 3.07 | 90.3 ± 2.17 | 123.59 ± 8.25 | 27 ± 4 | 0.63 ± 0.06 | 1.20 ± 0.06 | significantly increased | significantly lower | – | – | – |
| CCN(C)C(=O)Oc1ccc(/C=C/S(=O)(=O)CC(c2ccc(-c3ccc(OC)c(OC)c3)cc2)[N+](=O)[O-])cc1OC(=O)N(C)CC (centres unmarked) [Compound M1-1, (E)-4-{2-[2-(3′,4′-dimethoxy-[1,1′-biphenyl]-4-yl)-2-nitroethylsulfonyl]ethenyl}-1,2-phenylenebis(N-ethyl-N-methylcarbamate)] | – | – | – | 95.64 ± 9.25 | 20 ± 3 | 0.27 ± 0.08 | 1.35 ± 0.04 | – | – | 82.4 ± 2.54 | 89.9 ± 3.67 | 95.1 ± 1.94 |
| O=S(=O)(/C=C/c1ccc(O)c(O)c1)Cc1ccc(Cl)cc1 [Compound 3D, (E)-4-{2-[(4-chlorophenyl)mesyl]ethenyl}benzene-1,2-diol, reference compound] | 69.5 ± 5.21 | 84.1 ± 1.87 | 91.5 ± 2.32 | 104.89 ± 7.56 | 39 ± 4 | 0.49 ± 0.12 | 0.93 ± 0.06 | – | – | – | – | – |
| O=S(=O)(/C=C/c1ccc(O)c(O)c1)Cc1ccc(C(F)(F)F)cc1 [Compound 3B, (E)-4-{2-[(4-trifluoromethylphenyl)mesyl]ethenyl}benzene-1,2-diol, reference compound] | 65.9 ± 1.47 | 76.4 ± 6.54 | 84.9 ± 2.65 | 236.55 ± 13.78 | 44 ± 5 | 0.93 ± 0.04 | 0.53 ± 0.03 | – | – | – | – | – |
| COc1ccc(CC(=O)Oc2ccc(C(N)CS(=O)(=O)/C=C/c3ccc(OC(C)(C)C)c(OC(=O)N(C)c4ccccc4)c3)cc2)cc1 (centres unmarked) [Compound P1-3, (E)-4-{1-amino-2-[4-t-butoxy-3-(N-methyl-N-phenylcarbamoyloxy)styrylsulfonyl]ethyl}phenyl-2-(4-methoxyphenyl)acetate] | – | – | – | 48.33 ± 5.37 | 31 ± 4 | 0.31 ± 0.05 | 0.77 ± 0.03 | – | – | 71 ± 3.56 | 85.2 ± 2.94 | 93.7 ± 3.08 |
| O=S(=O)(/C=C/c1ccc(O)c(O)c1)CCCc1ccccc1 [Compound 3C, (E)-4-{2-[(3-phenylpropyl)sulfonyl]ethenyl}benzene-1,2-diol, reference compound] | 61.3 ± 3.22 | 75.7 ± 1.98 | 74.2 ± 4.55 | 132.98 ± 7.78 | 70 ± 6 | 0.92 ± 0.13 | 0.63 ± 0.03 | – | – | – | – | – |
| C=CCOc1ccc(C/C=C/S(=O)(=O)/C=C/c2ccc(OC(C)=O)c(OC(=O)N(CC=C)CC=C)c2)cc1 [Compound K1-4, 4-{(E)-2-[(E)-3-(4-allyloxyphenyl)prop-1-en-1-yl]sulfonylethenyl}-2-(N,N-diallylcarbamoyloxy)phenyl acetate] | 76.7 ± 3.17 | 87.1 ± 2.56 | 93.2 ± 1.81 | 106.95 ± 9.27 | 30 ± 4 | 0.45 ± 0.12 | 0.74 ± 0.08 | – | – | – | – | – |
| CC[Si](CC)(Oc1ccc(C(Cl)S(=O)(=O)/C=C/c2ccc(OC(=O)N3CC(C)OC(C)C3)c(OC(=O)c3cccc(Cl)c3OC)c2)cc1)c1ccccc1 (centres unmarked) [Compound R1-5, (E)-4-{2-[4-(diethylphenylsiloxy)phenylchloromesyl]ethenyl}-2-(3-chloro-2-methoxybenzoyloxy)phenyl-2,6-dimethylmorpholine-4-carboxylate] | 72.3 ± 2.94 | 82.5 ± 2.83 | 90.2 ± 1.76 | 125.28 ± 9.35 | 39 ± 6 | 0.46 ± 0.11 | 0.94 ± 0.03 | – | – | – | – | – |
